Assay results published in US12337003B2, “Pharmaceutical compositions for combination therapy” (Intercept Pharmaceuticals, Inc., priority 2015, dated 2025).

What was measured:
[1] = tested on: fibrosis induced by common bile duct ligation in mice; test: Bile duct ligation (BDL) model, Sirius-red staining of liver sections; type: in vivo, C57BL/6 mice; settings: mean ± SD, OCA 5 mg/kg and/or atorvastatin 10 mg/kg orally once daily day 0 to day 6
Method: This experiment was performed to evaluate the effects of OCA and atorvastatin alone, and in combination, on fibrosis induced by common bile duct ligation in mice.
Male C57BL/6 mice (6 weeks of age) were obtained from Japan SLC. The animals were maintained in a specific pathogen free facility under controlled conditions of temperature (23±2° C.), humidity (45±10%), lighting (12-hour artificial light and dark cycles; light from 8:00 to 20:00), and air exchange (air exchange rate: more than 40 times/hour). A high pressure (20±4 Pa) was maintained in the experimental room to prevent contamination of the facility. The animals were housed in KN-600 (Natsume Seisakusho, Japan) with a maximum of 6 mice per cage. […]
Viability, clinical signs and behavior were monitored daily. Body weight was recorded daily during the treatment period. Food consumption was measured twice weekly per cage during the treatment period. […]
To visualize collagen deposition, Bouin's-fixed left lateral liver sections were stained using picro-Sirius red solution (Waldeck, Germany). For quantitative analysis of the fibrosis area, bright field images of Sirius red-stained sections were captured around the central vein using a digital camera (DFC295; Leica, Germany) at 100-fold magnification, and the positive areas in 5 fields/section were measured using ImageJ software (National Institute of Health, USA). […]

[2] = tested on: APOE*3Leiden.CETP transgenic mice on high fat diet; test: Diet induced NASH in APOE*3Leiden.CETP mice, hepatic inflammation score; type: in vivo; settings: for Inflammation (# of inflammatory cell foci): in high fat diet
Method: (§1) This experiment was performed to evaluate the effects of OCA and fenofibrate, alone or in combination, on the development of diet induced NASH and liver fibrosis in APOE*3Leiden.CETP transgenic mice. Hepatic gene expression profiling and subsequent pathway analysis were performed to determine whether the combination regulates novel genes not regulated by either monotherapy treatment, and/or more strongly regulates genes also impacted by the monotherapy.
Male APOE*3Leiden.CETP transgenic mice (9-21 weeks old) were obtained and housed 2-5 mice per cage. The mice were fed a high fat diet containing 24% lard and 1% (w/w) cholesterol. The run in period was 15 weeks on the high fat diet. At week 16, mice were matched based on age, body weight, plasma cholesterol and triglycerides after 4 h fasting.
• Mice (n=15) were fed a high fat diet during the run in weeks 0 to 14. Group 2: HFC control group • Mice (n=15) were fed a high fat diet from weeks 0 to 24. Group 3: HFC+OCA • Mice (n=15) were fed a high fat diet supplemented with OCA at a dose of 10 mg/kg once daily from week 16 to 24. Group 4: HFC+low dose fenofibrate • Mice (n=15) were fed a high fat diet supplemented with fenofibrate at a dose of 10 mg/kg once daily from week 16 to 24. Group 5: HFC+high dose fenofibrate • Mice (n=15) were fed a high fat diet supplemented with fenofibrate at a dose of 40 mg/kg once daily from week 16 to 24. Group 6: HFC+OCA+low dose fenofibrate • Mice (n=15) were fed a high fat diet supplemented with OCA at a dose of 10 mg/kg once daily and fenofibrate at a dose of 10 mg/kg once daily from week 16 to 24. Group 7: HFC+OCA+high dose fenofibrate • Mice (n=15) were fed a high fat diet supplemented with OCA at a dose of 10 mg/kg once daily and fenofibrate at a dose of 40 mg/kg once daily from week 16 to 24. Group 8: Chow control group • Mice (n=8) were feed chow from week 0 to 24. Study Design
(§2) Mice were fed a high fat chow (HFC) diet for […]. After 15 weeks on the HFC diet, HFC mice were matched into 7 groups based on age, body weight, plasma cholesterol and triglycerides after 4 h fasting. Mice were treated with of OCA and fenofibrate, alone or in combination beginning at week 15 and sacrificed at week 25 in an unfasted state. One week before sacrifice, mice were labeled with D20, by i.p. injection of a bolus of D20 and subsequent addition of 4% D20 to the drinking water. Plasma (EDTA) was obtained by heart puncture and stored at −70° C. The liver was weighed and 4 pieces of liver were isolated: 1 piece (medial lobe) was fixed in 10% formalin (for NASH and fibrosis histology) and 3 pieces (sinister lobe) were snap-frozen in liquid N2 and stored individually at −70° C.
Inflammation is a key feature of NASH. Inflammation was categorized according to the procedure by Liang et al., PlosOne 2014 Dec. 9(12) and scored by quantitatively analyzing the number of inflammatory cells aggregates. In particular, the level of inflammation was evaluated by counting the number of inflammatory foci per field using a 100× magnification (view size of 3.1 mm2; average of five different fields).

[3] = tested on: leukocyte extravasation signaling; test: Hepatic gene expression profiling (RNA sequencing, pathway analysis) in APOE*3Leiden.CETP mice; type: in vivo
Method: as §1, §2
Nucleic acid extraction was performed as described previously in detail (Verschuren et al., 2014). Briefly, total RNA was extracted from individual liver samples using glass beads and RNAzol (Campro Scientific, Veenendaal, The Netherlands). RNA concentration and quality was determined using the Fragment Analyzer (Advanced Analytical Technologies, USA) and the RNA 6000 Nano Lab-on-a-Chip kit and a Bioanalyzer 2100 (Agilent Technologies, Amstelveen, The Netherlands). All samples met the quality requirements and were used in the RNA sequencing procedure.
The NEBNext Ultra Directional RNA library Prep Kit for Illumina was used to process the samples. The sample preparation was performed according to the protocol “NEBNext Ultra Directional RNA Library Prep Kit for Illumina” (NEB #E7420S/L). Briefly, mRNA was isolated from total RNA using oligo-dT magnetic beads. After fragmentation of the mRNA, a cDNA synthesis was performed. This was used for ligation of sequencing adapters and PCR amplification of the resulting product. The quality and yield after sample preparation was measured with the Fragment Analyzer (Advanced Analytical Technologies, USA). The size of the resulting products was consistent with the expected size distribution (a broad peak between 300-500 bp).
Clustering and DNA sequencing using the Illumina […] was performed according manufacturer's protocols. Data was generated using single-end read sequencing protocol obtaining approx. 15 million reads per sample and 75 bp per read. Image analysis, base calling, and quality check was performed with the Illumina data analysis pipeline RTA v2.4.11 to generate the raw data (*.fastq-files).
The reads were mapped to the reference sequence Mus musculus GRCm38.p3 using a short read aligner based on Burrows-Wheeler Transform. The default mismatch rate of 2% (3 mismatches in a read of 150 bases) was used. Based on the mapped read locations in the alignment files (*.bam-files) the frequency of how often a read was mapped on a transcript was determined. The counts were saved to count-files, which served as input for downstream mRNA-seq differential expression analysis. The read counts were loaded into the DESeq package, a statistical package within the R platform. […]

[4] = high dose fenofibrate 40 mg/kg, alone or with OCA 10 mg/kg

SMILES | Sirius red-positive area (%) [1] | Inflammation (# of inflammatory cell foci) ([2]; OCA 10 mg/kg and/or low dose fenofibrate 10 mg/kg) | reduction in inflammation [2, 4] | Inflammation (# of inflammatory cell foci) [2, 4] | number of uniquely regulated genes ([3]; Venn diagram, OCA 10 mg/kg, fenofibrate 10 mg/kg, combination) | enrichment analysis of canonical (inflammatory) pathways ([3]; liver mRNA, OCA 10 mg/kg and/or low dose fenofibrate vs HFC)
CC(C)c1c(C(=O)Nc2ccccc2)c(-c2ccccc2)c(-c2ccc(F)cc2)n1CC[C@@H](O)C[C@@H](O)CC(=O)O [ATO, atorvastatin, reference compound] | 2.31 ± 0.63% | – | – | – | – | –
CC(C)OC(=O)C(C)(C)Oc1ccc(C(=O)c2ccc(Cl)cc2)cc1 [fenofibrate] | – | 22.0 ± 15.6 | −74% | 7.1 ± 5.9 | 92 | no effect
